Results as given in publication PMC12162873, “Modulating phosphatase DUSP22 with BML-260 ameliorates skeletal muscle wasting via Akt independent JNK-FOXO3a repression” (EMBO Molecular Medicine, 2025).
Several values for one entry are separate records, joined by “and”; a condition that tells them apart may be missing. Equal entries are not always repeated.

Columns and labels:
C2C12 murine myotubes = assay: Dex-induced C2C12 myotube atrophy: myotube diameter, fusion and differentiation indexes; type: cell-based, mouse; details: 10 μM Dex 24 h, 12.5 μM BML-260
Description: (§1) C2C12 murine skeletal muscle myoblasts were purchased from Koram Biotech Corp. (Seoul, Republic of Korea). Prior to experiments, mycoplasma contamination was eliminated using the MycoXpert Mycoplasma Removal Reagent (MYX-B, CAPRICORN) following the manufacturer’s protocol. To ensure complete removal, all cells were passaged three times after treatment before being used in subsequent experiments. No STR profiling was recently undertaken. Myoblasts were cultured in growth media (GM), containing Dulbecco’s modified Eagle’s medium (DMEM), 10% fetal bovine serum, and 1% penicillin and streptomycin (PenStrep). C2C12 myoblasts were differentiated into myotubes at more than 80% confluence by culture in differentiation media (DM), containing DMEM supplemented with 2% horse serum and PenStrep, for 96 h. To induce atrophy, the myotubes were treated with DM plus 10 μM Dex for 24 h. BML-260 and SP600125 were purchased from Santa Cruz Biotechnology, TX, USA (cat. no. sc-223822 and sc-200635).
Fast myosin heavy chain 2 (MYH2) immunocytochemistry was used to visualize murine myotubes and measure myotube diameter, following the previously published protocol (Chen et al, [2016]). After mounting, fluorescence images were captured in 5 different regions using a DMI 3000 B microscope (Leica, Germany), and analyzed using the NIH imaging software Image J 64. 100 myotubes containing at least three nuclei were measured in each experimental group. Myotubes were primarily examined in the central area of each well, as opposed to randomly selected fields. The mid-point of the myotube was used to measure the diameter. For nuclear counts, we chose myotubes containing three or more nuclei. The observer was aware of the treatment conditions.
To assess myoblast fusion into multinucleate myotubes, nuclei number within fast myosin (MYH2)-positive cells were measured using the NIH imaging software Image J 64. The differentiation index was calculated as the percentage of nuclei in fast myosin (MYH2)-positive cells (nuclei in myotubes/total nuclei). Myotubes were classified as MYH-positive cells containing at least 4 nuclei. Myotubes were measured in groups of at least 100, with at least 7500 nuclei measured in each group.
(§2) Gene knockdown was carried out following the manufacturer’s protocol using a 6-well culture plate format (Thermo Fischer Scientific, Waltham, USA). Lipofectamine 3000 was used for the transfection step (Thermo Fischer Scientific, Waltham, USA). siRNA transfection was performed on day 3 of myoblast differentiation into myotubes. C2C12 myotubes and primary human myotubes were transfected with 75 pmol siRNA duplex. Details of the siRNAs used in this study are shown in Appendix Table S3.

C2C12 myotubes = assay: Real-time qPCR of gene expression in C2C12 myotubes; type: cell-based, mouse; details: for atrogin-1 and MuRF-1 expression, qPCR: 10 μM Dex 24 h, 12.5 μM BML-260; for DUSP22 expression, qPCR, Average / MURF-1 expression, qPCR, Average / atrogin-1 (ATRO) expression, qPCR, Average: Vehicle average = 1, n = 5; for DUSP22 expression, qPCR / MURF-1 expression, qPCR / atrogin-1 (ATRO) expression, qPCR: Vehicle average = 1, replicates
Description: as §1
The StepOnePlus Real Time PCR System (Applied Biosystems, UK) was used to measure the mRNA level of the genes of interest. An AccuPower RT PreMix (Bioneer, Republic of Korea) was used to synthesize the cDNA from total RNA. The real-time PCR (qPCR) was carried out according to the manufacturer’s instructions, and the previously published protocol (Lee et al, [2020]). Details of the primers used in this study are shown in Appendix Tables S1 and S2.
as §2

C57BL/6J mice = assay: Dex treatment mouse model of skeletal muscle atrophy, BML-260 treatment; type: in vivo; details: for mean body weight: 15 mg/kg Dex, 5 mg/kg BML-260, IP daily
Description: The Dex model of muscle atrophy was based on the previously published protocol (Kim et al, [2022]). In brief, 12-week-old male C57BL/6J mice were treated as follows: 1) Vehicle (DMSO in PBS pH 7.4 with 5% Tween 80) alone, 2) 15 mg/kg Dex dissolved in vehicle, 3) 15 mg/kg Dex and 5 mg/kg BML-260 (n = 5 per group). Mice were treated daily by intraperitoneal (IP) injection for 14 d and then assessed for muscle condition. The 5 mg/kg in vivo dose was selected based on a previous study that carried out bilateral injection of BML-260 into the fat pads of male 8-week-old C57BL/6J mice (Feng et al, [2019]).
Grip strength was measured using the BIO-GS3 device (Bioseb, FL, USA). Mice were placed onto the grid with all four paws attached and gently pulled backwards to measure the grip strength until the grid was released. The maximum grip value, used to represent muscle force, was calculated using 3 trials with an interval of 30 s.
Muscle fatigue was measured the previously described protocol (Chiu et al, [2018]), with two different models using the Rotarod. One was the constant model and the other was the accelerating model that is inherent in the rotarod device. In brief, the mice were accommodated to training before the commencement of the fatigue task using an accelerating rotarod (Ugo Basile, Italy). The mice were trained at a constant speed of 13 rpm for 15 min. After a recovery period of 15 min, the mice were placed on the rotarod adjusted to accelerate from 13 to 25 rpm in 3 min for 15 min. 24 h later, the muscle fatigue test was carried out with speeds ramping from 13 to 25 rpm in 3 min, and maintained at 25 rpm for a 30 min interval. Latency to fall off the rotarod was measured for each mouse. A fatigued mouse was classified as falling off 4 times within a 1 min period, which also terminated the test.
Mice were anesthetized using ketamine (22 mg/kg; Yuhan, Republic of Korea) and xylazine (10 mg/kg; Bayer, Republic of Korea) in saline by IP injection. The quadriceps, gastrocnemius, soleus and TA muscles were then dissected and weighed. For histological analysis, the muscles were fixed by overnight incubation with 4% paraformaldehyde in PBS pH 7.4 at 4 °C. Paraffin sectioning and H&E staining were provided by the Animal Housing Facility, Gwangju Institute of Science and Technology, Republic of Korea (5 µm muscle sections using a Thermo Scientific HistoStar (Thermofisher). H&E staining was carried out with a kit (Merck, Germany)). For immunohistochemistry, TA muscle sections were permeabilized for 15 min (PBS with 0.5% Triton X-100), blocked for 1 h (5% BSA) and incubated with the primary antibody overnight at 4 °C (a list of primary and secondary antibodies used in this study are provided in Appendix Tables S4 and S5, respectively). After washing with PBS 3 times for 5 min, the sections were incubated with the secondary antibody at RT for 1 h. The nuclei were counterstained with DAPI in ProLong™ Gold Antifade Mountant (Invitrogen, P36935). Digital images were acquired with Leica DM 2500 (Leica Microsystems). Cross sectional area (CSA) and fiber size distribution was measured using the NIH imaging software Image J 64. To CSA and size distribution of different fiber types was calculated in 4 muscle section as follows: type 2 A: 30–40 fibers measured; type 2B: at least 100 fibers measured; type 2X: 30–40 fibers measured.

[1] = dexamethasone-treated C2C12 myotubes
[2] = dexamethasone-treated C2C12 myotubes, listed as BML
[3] = 15 mg/kg Dex and 5 mg/kg BML-260, IP daily 14 d
[4] = C2C12 myotubes treated with Dex

O=C(O)c1ccc(N2C(=O)C(=Cc3ccccc3)SC2=S)cc1 (stereo in doubt) [BML-260]
myotube atrophy (myotube diameter) (C2C12 murine myotubes): prevented myotube atrophy
myotube fusion and differentiation indexes (C2C12 murine myotubes): recovered
proportion of larger-sized myotubes (C2C12 murine myotubes): maintained the proportion of larger-sized myotubes
atrogin-1 and MuRF-1 expression, qPCR (C2C12 myotubes): downregulated
additional effect on Dex-induced atrogene expression in the presence of DUSP22 gene knockdown (C2C12 myotubes; Dex-treated C2C12 myotubes): no significant additional effect
DUSP22 expression, qPCR, Average (C2C12 myotubes; [1]): 1.419
MURF-1 expression, qPCR, Average (C2C12 myotubes; [1]): 2.125
atrogin-1 (ATRO) expression, qPCR, Average (C2C12 myotubes; [1]): 2.99
DUSP22 expression, qPCR (C2C12 myotubes; [2]): 1.3832 and 1.906 and 1.483 and 1.176 and 1.145
MURF-1 expression, qPCR (C2C12 myotubes; [2]): 2.278 and 2.851 and 2.228 and 1.487 and 1.782
atrogin-1 (ATRO) expression, qPCR (C2C12 myotubes; [2]): 3.37 and 3.403 and 3.232 and 2.06 and 2.886
TA muscle mass (C57BL/6J mice; [3]): increased
grip strength (C57BL/6J mice; [3]): increased the mean grip strength value, but it did not achieve statistical significance
myofiber area distribution (C57BL/6J mice; [3]): shifted the myofiber area distribution towards larger sized fibers
rotarod muscle performance, acceleration and constant models (C57BL/6J mice; [3]): significantly recovered muscle performance
upregulation of atrogin-1, MuRF-1 and DUSP22 in TA muscle, western blot (C57BL/6J mice; [3]): inhibited
myofiber CSA (C57BL/6J mice; 15 mg/kg Dex and 5 mg/kg BML-260, IP daily 14 d, TA muscle per text): significantly increased
mean body weight (C57BL/6J mice): recovered

C[C@@H]1C[C@H]2[C@@H]3CCC4=CC(=O)C=C[C@]4(C)[C@@]3(F)[C@@H](O)C[C@]2(C)[C@@]1(O)C(=O)CO [Dex, dexamethasone]
myotube atrophy (myotube diameter) (C2C12 murine myotubes): underwent atrophy
atrogin-1 and MuRF-1 expression, qPCR (C2C12 myotubes): upregulated
DUSP22 expression in myotubes undergoing Dex-induced atrophy, RNA Seq and qPCR (C2C12 myotubes; C2C12 myotubes): upregulated
DUSP22 expression, qPCR, Average (C2C12 myotubes; [4]): 1.867
DUSP22 expression, qPCR (C2C12 myotubes; [4]): 1.751 and 1.762 and 2.076 and 2.045 and 1.699
DUSP22 expression, qPCR, Average (C2C12 myotubes; [1]): 1.628
MURF-1 expression, qPCR, Average (C2C12 myotubes; [1]): 2.64
atrogin-1 (ATRO) expression, qPCR, Average (C2C12 myotubes; [1]): 4.291
DUSP22 expression, qPCR (C2C12 myotubes; [1]): 2.068 and 1.836 and 1.276 and 1.511 and 1.449
MURF-1 expression, qPCR (C2C12 myotubes; [1]): 3.398 and 2.859 and 1.96 and 2.287 and 2.697
atrogin-1 (ATRO) expression, qPCR (C2C12 myotubes; [1]): 4.546 and 3.961 and 4.048 and 4.199 and 4.699
mean body weight (C57BL/6J mice): significantly reduced
DUSP22 expression, qPCR (C57BL/6J mice; TA muscle of C57BL/6 mice treated with Dex, Vehicle average = 1, individual animals): 2.47 and 1.789 and 1.328 and 1.032
